Results published in PMC9952648, “Structural Features Governing the Metabolic Stability of Tetraethyl-Substituted Nitroxides in Rat Liver Microsomes” (Antioxidants, 2023).
Like-named read-outs stand apart in the source and are kept apart here. Marks after values point to notes of the source that are not given here.

Key:
[1] = test system: liver homogenates; set-up: method as in PMID 34641310; settings: ref 29; cited from earlier work
[2] = test system: rat liver microsomes (RLM); test: Aerobic incubation of nitroxides with rat liver microsomes and NADPH monitored by EPR; settings: for Decay in 30 min (conversion by P450): RLM + NADPH; for Nitroxide recovered upon reoxidation with potassium ferricyanide: ferricyanide 1 mM added to whole system after 30 min incubation; for Initial rate of decrease, + Clo / Initial rate of decrease, + Clo (per P450): whole system + clotrimazole 25 μM; for Initial rate of decrease, + Clo / Initial rate of decrease, +DPI / Initial rate of decrease, -NADPH / Initial rate of decrease, -RLM / Initial rate of decrease, + Clo (per P450) / Initial rate of decrease, +DPI (per P450): nitroxide 100 µM; for Initial rate of decrease, +DPI / Initial rate of decrease, +DPI (per P450): whole system + diphenyliodonium chloride 100 μM; for Initial rate of decrease, WS / Initial rate of decrease, WS (per P450): whole system: nitroxide 100 µM + RLM + NADPH, pH 7.4, 21 °C; for Initial rate of decrease, -NADPH: without NADPH; for Initial rate of decrease, -RLM: without RLM
[3] = Reduction of nitroxides by excess ascorbate monitored by stopped-flow EPR; format: physicochemical; settings: potassium phosphate buffer 0.1 M, pH 7.4, equilibrated with air, 21 °C; This work
Text: A 4-bore AquaX quartz cell (Bruker) inserted into the cavity was connected to a Bio-Logic MPS-51 stop-flow apparatus with three syringes (Bio-Logic, Claix, France) controlled by the Bio-Logic MPS software. […] The initial second-order reaction rate constant of the reaction of nitroxides with ascorbate, k0 values was derived from experimental results as previously described.

[4] = test system: rat liver microsomes (RLM); settings: anaerobic; for EPR signal regenerated by reoxidation with potassium ferricyanide: ferricyanide 1 mM added to whole system after 30 min incubation (nitroxide 5: with simultaneous Clo 25 μM)
Experimental: Addition of NADPH to a final concentration of 1 mM started the reaction. Samples were mixed and transferred to glass microcapillary pipettes (50 μL, Hirschmann) that had been previously purged with N2.

[5] = cited from earlier work
[6] = reaction measured with ascorbate and glutathione mixtures
[7] = whole system + clotrimazole 25 μM, nitroxide 100 μM
[8] = whole system + diphenyliodonium chloride 100 μM, nitroxide 100 μM
[9] = whole system: nitroxide 100 μM + RLM + NADPH, pH 7.4, 21 °C

CCC1(CC)CC(CN)C(CC)(CC)N1[O] (centres unmarked) [Compound 6, 3-(aminomethyl)-2,2,5,5-tetraethylpyrrolidineyloxyl]
Decay in liver homogenates [1]: significantly decayed

CCC1(CC)CC(CNC(=O)C[P+](c2ccccc2)(c2ccccc2)c2ccccc2)C(CC)(CC)N1[O].[Cl-] (centres unmarked) [Compound 7, 3-(2-triphenylphosphonio)acetamidomethyl-2,2,5,5-tetraethylpyrrolidine-1-oxyl chloride]
Decay in liver homogenates [1]: significantly decayed

CCC1(CC)CC(C(=O)O)C(CC)(CC)N1[O] (centres unmarked) [Nitroxide 3, 3-carboxy-2,2,5,5-tetraethyl-1-pyrrolidinyloxyl]
Decay in 30 min (conversion by P450) [2]: 5–10% | Nitroxide recovered upon reoxidation with potassium ferricyanide [2]: not the case | Initial rate of decrease, + Clo [2]: 0.0 ** nmol·min^−1·mg^−1 prot | Initial rate of decrease, +DPI [2]: 0.0 ** nmol·min^−1·mg^−1 prot | Initial rate of decrease, WS [2]: 1.8 ± 0.2 nmol·min^−1·mg^−1 prot | Initial rate of decrease, WS (per P450) [2]: 0.46 ± 0.05 nmol·min^−1·nmol^−1 P450 | Initial rate of decrease, -NADPH [2]: 0.0 ** nmol·min^−1·mg^−1 prot | Initial rate of decrease, -RLM [2]: 0.0 ** nmol·min^−1·mg^−1 prot | Initial second-order reaction rate constant k0 for reduction by excess ascorbate [3]: 0.0011 ± 0.0002 M⁻¹ s⁻¹ | EPR signal regenerated by reoxidation with potassium ferricyanide [4]: hardly detectable | Initial second-order reaction rate constant k0 for reduction by excess ascorbate [5, 6]: 0.0011 ± 0.0002 ^a M^−1·s^−1 | Initial second-order reaction rate constant k0 for reduction by excess ascorbate ([5]; ref 30): ≤0.001 M⁻¹ s⁻¹ | Initial second-order reaction rate constant k0 for reduction by excess ascorbate ([5]; ref 42): 0.002 ± 0.001 M⁻¹ s⁻¹

CC1(C)CC(=O)CC(C)(C)N1[O] [Nitroxide 1, 2,2,6,6-tetramethyl-4-oxo(piperidine-1-yloxyl) radical, reference compound]
Nitroxide recovered upon reoxidation with potassium ferricyanide [2]: 15% | Initial rate of decrease, + Clo [2]: 1.2 ± 0.3 nmol·min^−1·mg^−1 prot | Initial rate of decrease, + Clo (per P450) [2]: 0.30 ± 0.09 nmol·min^−1·nmol^−1 P450 | Initial rate of decrease, +DPI [2]: 5.1 ± 0.3 nmol·min^−1·mg^−1 prot | Initial rate of decrease, +DPI (per P450) [2]: 1.31 ± 0.07 nmol·min^−1·nmol^−1 P450 | Initial rate of decrease, WS [2]: 11.1 ± 0.8 nmol·min^−1·mg^−1 prot | Initial rate of decrease, WS (per P450) [2]: 2.8 ± 0.2 nmol·min^−1·nmol^−1 P450 | Initial rate of decrease, -NADPH [2]: 0.0 *** nmol·min^−1·mg^−1 prot | Initial rate of decrease, -RLM [2]: 0.0 *** nmol·min^−1·mg^−1 prot | Initial second-order reaction rate constant k0 for reduction by excess ascorbate [3]: 6.9 ± 0.1 M⁻¹ s⁻¹ | EPR signal regenerated by reoxidation with potassium ferricyanide [4]: 37% | Initial rate of decrease, + Clo [4, 7]: 4.3 ± 0.4 nmol·min^−1·mg^−1·prot | Initial rate of decrease, + Clo (per P450) [4, 7]: 1.1 ± 0.2 nmol·min^−1·nmol^−1·P450 | Initial rate of decrease, +DPI [4, 8]: 2.7 ± 0.3 nmol·min^−1·mg^−1·prot | Initial rate of decrease, +DPI (per P450) [4, 8]: 0.70 ± 0.08 nmol·min^−1·nmol^−1·P450 | Initial rate of decrease, WS [4, 9]: 19.3 ± 0.9 nmol·min^−1·mg^−1·prot | Initial rate of decrease, WS (per P450) [4, 9]: 5.0 ± 0.5 nmol·min^−1·nmol^−1·P450 | Initial rate of decrease, -NADPH ([4]; without NADPH, nitroxide 100 μM): 0.0 ** nmol·min^−1·mg^−1·prot | Initial rate of decrease, -RLM ([4]; without RLM, nitroxide 100 μM): 0.0 ** nmol·min^−1·mg^−1·prot | Initial second-order reaction rate constant k0 for reduction by excess ascorbate [5, 6]: 7.2 ± 0.8 ^a M^−1·s^−1 | Initial second-order reaction rate constant k0 for reduction by excess ascorbate ([5]; ref 42): 5.75 ± 0.04 M⁻¹ s⁻¹ | Initial second-order reaction rate constant k0 for reduction by excess ascorbate ([5]; ref 57): 6.9 ± 0.7 M⁻¹ s⁻¹

CCC1(CC)C=C(C(=O)O)C(CC)(CC)N1[O] [Nitroxide 4, 3-carboxy-2,2,5,5-tetrethyl-pyrrolinyloxyl]
Decay in 30 min (conversion by P450) [2]: 5–10% | Nitroxide recovered upon reoxidation with potassium ferricyanide [2]: not the case | Initial rate of decrease, + Clo [2]: 0.0 ** nmol·min^−1·mg^−1 prot | Initial rate of decrease, +DPI [2]: 0.0 ** nmol·min^−1·mg^−1 prot | Initial rate of decrease, WS [2]: 0.84 ± 0.09 nmol·min^−1·mg^−1 prot | Initial rate of decrease, WS (per P450) [2]: 0.22 ± 0.03 nmol·min^−1·nmol^−1 P450 | Initial rate of decrease, -NADPH [2]: 0.0 ** nmol·min^−1·mg^−1 prot | Initial rate of decrease, -RLM [2]: 0.0 ** nmol·min^−1·mg^−1 prot | Initial second-order reaction rate constant k0 for reduction by excess ascorbate [3]: 0.0077 ± 0.0009 M⁻¹ s⁻¹ | EPR signal regenerated by reoxidation with potassium ferricyanide [4]: hardly detectable | Initial second-order reaction rate constant k0 for reduction by excess ascorbate [5, 6]: 0.00122 ± 0.00003 ^a M^−1·s^−1

CC1(C)CC(C(=O)O)C(C)(C)N1[O] (centres unmarked) [Nitroxide 2, 3-carboxy-2,2,5,5-tetramethyl-1-pyrrolidinyloxyl]
Nitroxide recovered upon reoxidation with potassium ferricyanide [2]: 42% | Initial rate of decrease, + Clo [2]: 0.94 ± 0.09 nmol·min^−1·mg^−1 prot | Initial rate of decrease, + Clo (per P450) [2]: 0.24 ± 0.03 nmol·min^−1·nmol^−1 P450 | Initial rate of decrease, +DPI [2]: 2.1 ± 0.3 nmol·min^−1·mg^−1 prot | Initial rate of decrease, +DPI (per P450) [2]: 0.54 ± 0.07 nmol·min^−1·nmol^−1 P450 | Initial rate of decrease, WS [2]: 4.8 ± 0.8 nmol·min^−1·mg^−1 prot | Initial rate of decrease, WS (per P450) [2]: 1.2 ± 0.1 nmol·min^−1·nmol^−1 P450 | Initial rate of decrease, -NADPH [2]: 0.0 ** nmol·min^−1·mg^−1 prot | Initial rate of decrease, -RLM [2]: 0.0 ** nmol·min^−1·mg^−1 prot | Initial second-order reaction rate constant k0 for reduction by excess ascorbate [3]: 0.072 ± 0.003 M⁻¹ s⁻¹ | Initial second-order reaction rate constant k0 for reduction by excess ascorbate [5, 6]: 0.060 ± 0.003 ^a M^−1·s^−1 | Initial second-order reaction rate constant k0 for reduction by excess ascorbate ([5]; ref 42): 0.079 ± 0.001 M⁻¹ s⁻¹ | Initial second-order reaction rate constant k0 for reduction by excess ascorbate ([5]; ref 70): 0.11 ± 0.01 M⁻¹ s⁻¹

CCC1(CC)c2ccc(C(=O)O)cc2C(CC)(CC)N1[O] [Nitroxide 5, 5-carboxy-1,1,3,3-tetraethyl-2-isoindolinyloxyl]
New six-line paramagnetic species formed, share of the initial nitroxide ([2]; 300 μM nitroxide, RLM 30 μM P450, 2 mM NADPH, 21 °C, at 10 min (maximum)): 7% | Nitroxide recovered upon reoxidation with potassium ferricyanide [2]: not the case | Initial rate of decrease, + Clo [2]: 0.0 *** nmol·min^−1·mg^−1 prot | Initial rate of decrease, +DPI [2]: 0.0 *** nmol·min^−1·mg^−1 prot | Initial rate of decrease, WS [2]: 3.4 ± 0.2 nmol·min^−1·mg^−1 prot | Initial rate of decrease, WS (per P450) [2]: 0.88 ± 0.05 nmol·min^−1·nmol^−1 P450 | Initial rate of decrease, -NADPH [2]: 0.0 *** nmol·min^−1·mg^−1 prot | Initial rate of decrease, -RLM [2]: 0.0 *** nmol·min^−1·mg^−1 prot | Initial second-order reaction rate constant k0 for reduction by excess ascorbate [3]: 0.02 ± 0.01 M⁻¹ s⁻¹ | EPR signal regenerated by reoxidation with potassium ferricyanide [4]: 30%
